From ChEMBL document CHEMBL1152338, “Discorhabdins revisited: cytotoxic alkaloids from southern australian marine sponges of the genera Higginsia and Spongosorites” (J Nat Prod, 2009)
In brackets after ≈: the same amount, converted by molar mass.

Legend:
Assay type in all cases: functional, cell-based
HT-29 = experiment: Cytotoxicity against human HT-29 cells
A549 = experiment: Cytotoxicity against human A549 cells
MDA-MB-231 = experiment: Cytotoxicity against human MDA-MB-231 cells

Row | Compound | IC50 (HT-29) [µg/mL] | IC50 (A549) [µg/mL] | IC50 (MDA-MB-231) [µg/mL]
1 | C[N+]1=C2C=C(NCCc3ccc(O)cc3)C(=O)c3[nH]cc(c32)CC1 [MAKALUVAMINE J] | 5 | 5 | 5
2 | O=C1C[C@H]2S[C@H]3C[C@]2(C=C1Br)C1=C(N3)C(=O)c2[nH]cc3c2C1=NCC3 [DISCORHABDINE A] | 0.05 (≈ 0.12 µM) | 0.05 (≈ 0.12 µM) | 0.05 (≈ 0.12 µM)
3 | CN1CCc2cn(C)c3c2C1=CC(=O)C3=O [DAMIRONE A] | 5 (≈ 23.1 µM) | 5 (≈ 23.1 µM) | 5 (≈ 23.1 µM)
4 | O=C1C2=C(C3=NCCc4c[nH]c1c43)[C@]13C=C(Br)[C@@H](O)C[C@H]1S[C@@H](C3)N2 | 0.1 (≈ 0.239 µM) | 0.1 (≈ 0.239 µM) | 0.1 (≈ 0.239 µM)
5 | O=C1C2=C3C4=[N+](CCc5c[nH]c1c54)[C@@H]1[C@H](O)C=C4S[C@@H](C[C@@]43[C@H]1O)N2 | 0.1 | 0.1 | 0.1
